Measurements as given in US20070244190A1, “Neobritannilactone B and acetyl neobritannilactone B” (priority 2006, published 2007).
Where two headings read alike, the source gives them in different places.

Tests used:
HL-60 cells [1] = experiment: Apoptosis (sub-G1) by flow cytometry; format: cell-based, human; conditions: 24 h, mean ± SE
Method: (§1) Cell Culture and Chemicals. The COLO 205 and HT 29 cell lines were isolated from human colon adenocarcinoma (ATCC CCL-222 and HTB-38); human promyelocytic leukemia (HL-60) cells were obtained from American Type Culture Collection (Rockville, Md.). The human AGS gastric carcinoma cell lines (CCRC 60102) were obtained from the Food Industry Research and Development Institute (Hsinchu, Taiwan). Cell lines were grown at 37° C. in 5% CO2 dioxide atmosphere in RPMI for COLO 205, HT-29, and HL-60 cells and DMEM/F12 for AGS cells, all supplemented with 10% heat-inactivated fetal bovine serum (GIBCO BRL, Grand Island, N.Y.) (100 units/mL of penicillin, 100 μg/mL of streptomycin), and 2 mM L-glutamine (GIBCO BRL). Selected compounds were dissolved in dimethyl sulfoxide (DMSO). Propidium iodide was obtained from Sigma Chemical Co. (St. Louis, Mo.).
(§2) Flow Cytometry. Human cancer cells (2×10^5) were cultured in 60-mm Petri dishes and incubated for 24 h. The apoptotic cells (sub-G1) in the selected compounds and treated cells were measured by flow cytometry analysis. Then cells were harvested, washed with PBS, resuspended in 200 μL of PBS, and fixed in 800 μL of iced 100% ethanol at −20° C. After being left to stand overnight, the cell pellets were collected by centrifugation, resuspended in 1 mL of hypotonic buffer (0.5% Triton X-100 in PBS and 0.5 μg/mL RNase), and incubated at 37° C. for 30 min. Then 1 mL of propidium iodide solution (50 μg/mL) was added and the mixture was allowed to stand on ice for 30 min. Fluorescence emitted from the propidium iodide-DNA complex was quantitated after excitation of the fluorescent dye by FACScan cytometry (Becton Dickinson, San Jose, Calif.).
(§3) The compounds isolated from Inula were tested for their effects on the apoptotic ratio in human cancer cells.

HT-29 cells [2] = experiment: Apoptosis (sub-G1) by flow cytometry; format: cell-based, human; conditions: 24 h, mean ± SE
Method: as §1, §2, §3

AGS cells [3] = experiment: Apoptosis (sub-G1) by flow cytometry; format: cell-based, human; conditions: 24 h, mean ± SE
Method: as §1, §2, §3

COLO 205 cells [4] = experiment: Apoptosis (sub-G1) by flow cytometry; format: cell-based, human; conditions: 24 h, mean ± SE
Method: as §1, §2, §3

HL-60 cells [5] = experiment: Cell viability, trypan blue exclusion, 24 h; format: cell-based; conditions: HL-60, 24 h, mean ± SE, n=3, read-out: IC50, growth of human cancer cells
Method: as §1
(§4) Determination of Cell Viability. Human cancer cells were treated either with DMSO (0.01%) or the selected compounds (5-100 μM). Cell viability was determined at 24 h based on trypan blue exclusion assay. The viability percentage was calculated based on the percentage of unstained cells. Suspensions of cells were diluted 1:1 with 0.5% trypan blue solution. Stained and unstained cells were counted in a hemocytometer.

HT-29 cells [6] = experiment: Cell viability, trypan blue exclusion, 24 h; format: cell-based; conditions: HT-29, 24 h, mean ± SE, n=3, read-out: IC50, growth of human cancer cells
Method: as §1, §4

AGS cells [7] = experiment: Cell viability, trypan blue exclusion, 24 h; format: cell-based; conditions: mean ± SE, n=3, read-out: IC50, growth of human cancer cells
Method: as §1, §4

COLO 205 cells [8] = experiment: Cell viability, trypan blue exclusion, 24 h; format: cell-based; conditions: COLO 205, 24 h, mean ± SE, n=3, read-out: IC50, growth of human cancer cells
Method: as §1, §4

| SMILES | apoptotic ratio (HL-60 cells [1]; HL-60, 5 μM) | apoptotic ratio (HL-60 cells [1]; HL-60, 10 μM) [%] | apoptotic ratio (HL-60 cells [1]; HL-60, 25 μM) [%] | apoptotic ratio (HL-60 cells [1]; HL-60, 50 μM) [%] | apoptotic ratio (HL-60 cells [1]; HL-60, 100 μM) | apoptotic ratio (HT-29 cells [2]; HT-29, 5 μM) [%] | apoptotic ratio (HT-29 cells [2]; HT-29, 10 μM) [%] | apoptotic ratio (HT-29 cells [2]; HT-29, 25 μM) | apoptotic ratio (HT-29 cells [2]; HT-29, 50 μM) [%] | apoptotic ratio (HT-29 cells [2]; HT-29, 100 μM) | apoptotic ratio (AGS cells [3]; 5 μM) | apoptotic ratio (AGS cells [3]; 10 μM) [%] | apoptotic ratio (AGS cells [3]; 25 μM) | apoptotic ratio (AGS cells [3]; 50 μM) | apoptotic ratio (AGS cells [3]; 100 μM) | apoptotic ratio (COLO 205 cells [4]; COLO 205, 5 μM) | apoptotic ratio (COLO 205 cells [4]; COLO 205, 10 μM) | apoptotic ratio (COLO 205 cells [4]; COLO 205, 25 μM) | apoptotic ratio (COLO 205 cells [4]; COLO 205, 50 μM) | apoptotic ratio (COLO 205 cells [4]; COLO 205, 100 μM) [%] | also measured |
| --- | --- | --- | --- | --- | --- | --- | --- | --- | --- | --- | --- | --- | --- | --- | --- | --- | --- | --- | --- | --- | --- |
| CC(=O)OCCC[C@H](C)C1=C[C@@H]2[C@H](C)C(=O)O[C@@H]2C[C@@]1(C)O [Compound 2, neobritannilactone A] | 6.68 ± 1.51% | 6.31 ± 0.98 | 6.19 ± 0.01 | 6.63 ± 2.21 | 16.31 ± 1.63% | 3.94 ± 1.05 | 4.24 ± 0.24 | 5.17 ± 1.70% | 4.09 ± 0.77 | 7.73 ± 3.22% | 9.23 ± 0.22% | 9.83 ± 2.27 | 10.57 ± 2.11% | 9.41 ± 2.83% | 9.81 ± 2.30% | 4.08 ± 0.21% | 6.51 ± 2.28% | 4.28 ± .93% | 5.44 ± 0.47% | 25.50 ± 3.46 | IC50 (HL-60 cells [5]): 85.8 ± 4.97 µM; IC50 (HT-29 cells [6]): > 100 µM; IC50 (AGS cells [7]): > 100 µM; IC50 (COLO 205 cells [8]): 97.9 ± 1.16 µM |
| C=C1C(=O)O[C@@H]2CC(C)=C([C@@H](C)CCCO)[C@H](O)[C@H]12 [Compound 5, britannilactone] | 7.22 ± 1.54% | 5.64 ± 2.00 | 5.24 ± 0.67 | 8.01 ± 1.34 | 12.83 ± .06% | 5.75 ± 1.77 | 6.16 ± 1.23 | 6.49 ± 1.07% | 6.59 ± 0.54 | 7.55 ± .08% | 7.93 ± 1.71% | 10.37 ± 0.98 | 10.16 ± .28% | 8.97 ± 0.66% | 10.37 ± 0.66% | 11.90 ± 3.61% | 12.28 ± 5.24% | 12.79 ± 1.84% | 15.54 ± 2.14% | 28.31 ± 1.89 | IC50 (HL-60 cells [5]; Homo sapiens): > 100 µM; IC50 (HT-29 cells [6]; Homo sapiens): > 100 µM; IC50 (AGS cells [7]; Homo sapiens): > 100 µM; IC50 (COLO 205 cells [8]; Homo sapiens): > 100 µM |
| C=C1C(=O)OC2CC(C)=C(C(C)CCCOC(C)=O)C(O)C12 (stereo not drawn) [Compound 6, 1-O-acetylbritannilactone] | 4.05 ± 0.31% | 7.26 ± 2.15 | 4.37 ± 0.57 | 5.69 ± 0.60 | 22.19 ± 4.14% | 5.36 ± 1.80 | 6.81 ± 2.14 | 11.68 ± 3.02% | 9.26 ± 1.80 | 14.87 ± .90% | 15.37 ± 6.22% | 17.28 ± 2.29 | 14.66 ± 1.38% | 14.84 ± .58% | 18.85 ± .68% | 13.44 ± .25% | 11.32 ± .421% | 16.48 ± 3.75% | 16.59 ± 0.71% | 35.79 ± 1.36 | IC50 (HL-60 cells [5]): > 100 µM; IC50 (HT-29 cells [6]): 96 ± 12.5 µM; IC50 (AGS cells [7]): > 100 µM; IC50 (COLO 205 cells [8]): > 100 µM |
| C=C1C(=O)OC2CC(C)=C(C(C)CCCO)C(OC(=O)C(C)CC)C12 (stereo not drawn) [Compound 1, 6β-O-(2-methylbutyryl)-britannilactone] | 6.41 ± 0.79% | 5.36 ± 0.61 | 10.53 ± 3.34 | 28.60 ± 2.67 | 27.05 ± 0.54% | 4.24 ± 0.40 | 3.68 ± 0.47 | 3.93 ± 0.16% | 5.16 ± 0.93 | 6.40 ± 0.28% | 10.89 ± 1.69% | 11.38 ± 1.12 | 17.76 ± 0.76% | 28.48 ± 1.20% | 27.10 ± 0.54% | 5.33 ± 0.78% | 5.86 ± 0.32% | 15.20 ± 1.02% | 27.21 ± 5.51% | 36.24 ± 0.76 | IC50 (HL-60 cells [5]): 47.1 ± 1.55 µM; IC50 (HT-29 cells [6]): 48.1 ± 2.26 µM; IC50 (AGS cells [7]): 31.3 ± 1.8 µM; IC50 (COLO 205 cells [8]): 58.7 ± 1.32 µM |
| C=C1C(=O)OC2CC(C)=C(C(C)CCCOC(C)=O)C(OC(C)=O)C12 (stereo not drawn) [Compound 7, 1,6-O,O-diacetylbritannilactone] | 6.14 ± .20% | 8.67 ± 2.06 | 21.13 ± 0.37 | 27.02 ± 2.69 | 22.24 ± 1.06% | 11.19 ± 3.98 | 11.15 ± 2.84 | 11.50 ± .92% | 13.08 ± 0.63 | 20.88 ± .09% | 7.49 ± .88% | 5.79 ± 0.64 | 11.29 ± 2.16% | 10.79 ± 2.79% | 8.12 ± .26% | 6.94 ± .33% | 8.69 ± 1.65% | 26.95 ± 0.30% | 15.44 ± .08% | 17.82 ± 2.26 | IC50 (HL-60 cells [5]): 35.3 ± 0.44 µM; IC50 (HT-29 cells [6]): 76.6 ± 5.5 µM; IC50 (AGS cells [7]): 66.4 ± 6.29 µM; IC50 (COLO 205 cells [8]): 56.7 ± 3.66 µM |
